The values that follow come from patent US9938543B2, “Methods, reagents and cells for biosynthesizing glutarate methyl ester” (priority 2014, dated 2018).

Common to all, as to type: biochemical
For assay [1], the target named is T1, carboxylate reductase of SEQ ID NO: 2 (Mycobacterium marinum) (Mycobacterium marinum, UniProt B2HN69).
T1 construct: His-tag (N); made in house; host or cells: E. coli BL21[DE3], pET Duet vector
Description: Carboxylate reductase enzyme activity assay, glutarate methyl ester as substrate (NADPH consumption at 340 nm). The note with it: 2 mM glutarate methyl ester, 1 mM NADPH, 1 mM ATP, pH 7.5, room temperature 20 min; enhanced by gene product of sfp; against empty vector control. The method, then: (§1) A nucleotide sequence encoding a His-tag was added to the genes from Mycobacterium marinum, Mycobacterium smegmatis, Segniliparus rugosus, Mycobacterium massiliense, and Segniliparus rotundus that encode the carboxylate reductases of SEQ ID NOs: 2-4, 6 and 7, respectively (GenBank Accession Nos. ACC40567.1, ABK71854.1, EFV11917.1, EIV11143.1, and ADG98140.1, respectively) (see FIG. 8) such that N-terminal HIS tagged carboxylate reductases could be produced. Each of the modified genes was cloned into a pET Duet expression vector alongside a sfp gene encoding a His-tagged phosphopantetheine transferase from Bacillus subtilis, both under control of the T7 promoter. Each expression vector was transformed into a BL21[DE3] E. coli host along with the expression vectors from Example 2. Each resulting recombinant E. coli strain was cultivated at 37° C. in a 250 mL shake flask culture containing 50 mL LB media and antibiotic selection pressure, with shaking at 230 rpm. Each culture was induced overnight at 37° C. using an auto-induction media.
(§2) The pellet from each induced shake flask culture was harvested via centrifugation. Each pellet was resuspended and lysed via sonication. The cell debris was separated from the supernatant via centrifugation. The carboxylate reductases and phosphopantetheine transferase were purified from the supernatant using Ni-affinity chromatography, diluted 10-fold into 50 mM HEPES buffer (pH=7.5) and concentrated via ultrafiltration.
(§3) The enzyme activity assay was performed in triplicate in a buffer composed of a final concentration of 50 mM HEPES buffer (pH=7.5), 2 mM glutarate methyl ester, 10 mM MgCl2, 1 mM ATP and 1 mM NADPH. The enzyme activity assay reaction was initiated by adding purified carboxylate reductase and phosphopantetheine transferase or the empty vector control to the assay buffer containing the glutarate methyl ester and then incubated at room temperature for 20 min. The consumption of NADPH was monitored by absorbance at 340 nm.

For assay [2], the system named is carboxylate reductase of SEQ ID NO: 3 (Mycobacterium smegmatis). The assay is described as above. The following applies: 2 mM glutarate methyl ester, 1 mM NADPH, 1 mM ATP, pH 7.5, room temperature 20 min; enhanced by gene product of sfp; against empty vector control. The method, then:
as §1, §2, §3

The test system of assay [3] is carboxylate reductase of SEQ ID NO: 6 (Mycobacterium massiliense). Described as above. The note with it: 2 mM glutarate methyl ester, 1 mM NADPH, 1 mM ATP, pH 7.5, room temperature 20 min; enhanced by gene product of sfp; against empty vector control. The method, then:
as §1, §2, §3

Assay [4] has as its system carboxylate reductase of SEQ ID NO: 7 (Segniliparus rotundus). The assay is described as above. The following applies: 2 mM glutarate methyl ester, 1 mM NADPH, 1 mM ATP, pH 7.5, room temperature 20 min; enhanced by gene product of sfp; against empty vector control. On the procedure:
as §1, §2, §3

For assay [5], the target named is T2, pimeloyl-[acp] methyl ester methylesterase of SEQ ID NO: 1 (Escherichia coli, UniProt P13001).
T2 construct: His-tag (C); made in house; host or cells: E. coli BL21[DE3], pET28b+ vector
T2 sequence (P13001 whole entry): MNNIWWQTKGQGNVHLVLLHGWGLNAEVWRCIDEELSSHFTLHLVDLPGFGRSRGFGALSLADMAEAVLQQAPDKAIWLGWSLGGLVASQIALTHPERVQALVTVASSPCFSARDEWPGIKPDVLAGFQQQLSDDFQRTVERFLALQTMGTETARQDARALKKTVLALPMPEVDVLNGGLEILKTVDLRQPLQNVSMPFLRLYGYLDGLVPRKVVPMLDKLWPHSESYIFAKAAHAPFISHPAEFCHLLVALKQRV
The assay is described as follows: Pimeloyl-[acp] methyl ester methylesterase enzyme activity assay, glutaryl-CoA methyl ester to glutaryl-CoA (LC-MS). The following applies: 5 mM glutaryl-CoA methyl ester, 10 μM enzyme, 25 mM Tris.HCl pH 7.0, 30° C., 1 h. The method, then:
A sequence encoding an C-terminal His-tag was added to the gene from Escherichia coli encoding the pimeloyl-[acp] methyl ester methylesterase of SEQ ID NO: 1 (see FIG. 8) such that C-terminal HIS tagged pimeloyl-[acp] methyl ester methylesterase could be produced. The resulting modified gene was cloned into a pET28b+ expression vector under control of the T7 promoter and the expression vector was transformed into a BL21[DE3] E. coli host. The resulting recombinant E. coli strain was cultivated at 37° C. in a 500 mL shake flask culture containing 100 mL LB media and antibiotic selection pressure, with shaking at 230 rpm. Each culture was induced overnight at 18° C. using 0.3 mM IPTG.
The pellet from each induced shake flask culture was harvested via centrifugation. Each pellet was resuspended and lysed via sonication. The cell debris was separated from the supernatant via centrifugation. The pimeloyl-[acp] methyl ester methylesterase was purified from the supernatant using Ni-affinity chromatography, buffer exchanged and concentrated into 20 mM HEPES buffer (pH=7.5) via ultrafiltration and stored at 4° C.
Enzyme activity assays converting glutaryl-CoA methyl ester to glutaryl-CoA were performed in triplicate in a buffer composed of a final concentration of 25 mM Tris.HCl buffer (pH=7.0) and 5 [mM] glutaryl-CoA methyl ester. […] The formation of glutaryl-CoA was quantified via LC-MS.

T1 sequence (B2HN69 whole entry): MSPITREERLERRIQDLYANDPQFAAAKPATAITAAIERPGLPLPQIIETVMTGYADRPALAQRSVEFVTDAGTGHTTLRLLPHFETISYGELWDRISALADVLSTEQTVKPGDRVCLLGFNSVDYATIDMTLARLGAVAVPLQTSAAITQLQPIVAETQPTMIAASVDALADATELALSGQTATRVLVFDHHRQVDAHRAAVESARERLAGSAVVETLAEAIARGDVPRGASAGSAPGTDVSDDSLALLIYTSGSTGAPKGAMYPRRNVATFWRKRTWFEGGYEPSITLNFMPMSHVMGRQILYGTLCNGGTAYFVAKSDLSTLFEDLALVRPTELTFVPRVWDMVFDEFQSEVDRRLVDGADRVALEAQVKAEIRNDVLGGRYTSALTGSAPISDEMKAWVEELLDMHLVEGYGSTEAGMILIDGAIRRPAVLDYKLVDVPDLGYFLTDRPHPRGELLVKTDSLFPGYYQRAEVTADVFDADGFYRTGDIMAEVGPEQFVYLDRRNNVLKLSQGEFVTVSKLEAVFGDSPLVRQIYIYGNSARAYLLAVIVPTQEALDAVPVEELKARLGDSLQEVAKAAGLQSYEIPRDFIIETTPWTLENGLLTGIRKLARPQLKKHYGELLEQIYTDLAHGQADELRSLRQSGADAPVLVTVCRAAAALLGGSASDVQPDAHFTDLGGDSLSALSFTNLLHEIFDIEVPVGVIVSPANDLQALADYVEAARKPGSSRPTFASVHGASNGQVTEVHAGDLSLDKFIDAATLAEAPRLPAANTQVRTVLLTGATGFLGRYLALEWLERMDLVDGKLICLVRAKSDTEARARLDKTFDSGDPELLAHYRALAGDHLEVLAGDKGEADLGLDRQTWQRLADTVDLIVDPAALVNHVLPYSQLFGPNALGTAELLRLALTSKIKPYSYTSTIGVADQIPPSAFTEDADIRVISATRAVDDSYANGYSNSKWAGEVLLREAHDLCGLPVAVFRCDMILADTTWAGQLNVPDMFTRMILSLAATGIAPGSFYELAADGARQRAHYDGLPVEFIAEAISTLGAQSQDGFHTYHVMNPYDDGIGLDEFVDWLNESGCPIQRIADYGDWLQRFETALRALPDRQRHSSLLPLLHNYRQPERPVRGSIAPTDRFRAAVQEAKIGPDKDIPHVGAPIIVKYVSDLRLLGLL

For `COC(=O)CCCC(=O)O` [glutarate methyl ester], the “acceptance as substrate, forming glutarate semialdehyde methyl ester” value in assay [1], in assay [2], in assay [3] and in assay [4] was “accepted glutarate methyl ester as substrate” each time.

On to `COC(=O)CCCC(=O)SCCNC(=O)CCNC(=O)C(O)C(C)(C)COP(=O)(O)OP(=O)(O)OCC1OC(n2cnc3c(N)ncnc32)C(O)C1OP(=O)(O)O` (centres unmarked) [glutaryl-CoA methyl ester], for which the “acceptance as substrate, forming glutaryl-CoA” value in assay [5] was “accepted glutaryl-CoA methyl ester as substrate”.
